Earlier results in PubChem BioAssay AID1259409 (Chemical Carcinogenesis Research Information System (CCRIS), 2018).

System: rodent chemically induced tumor inhibition, incidence and multiplicity
Experiment: CCRIS tumor inhibitor studies

SMILES: S=C=NCCCCCCc1ccccc1
- tumour outcome (control, treated, inhibition, significance) (Carcinogen: 4-(METHYLNITROSAMINO)-1-(3-PYRIDYL)-1-BUTANONE, 64091-91-4, Dose [Inhibitor]: 0, 1 UMOL/G DIET FOR DURATION OF STUDY BEGINNING 1 WK PRIOR TO CARCINOGEN TREATMENT (STUDY DURATION: 112 WK), Route [Inhibitor]: ORAL, Species: RAT, Strain/Sex: F344/MALE, Target Tissue: Type of Lesion: PANCREAS: ACINAR ADENOMA, Dose [Carcinogen]: 2 PPM IN DRINKING WATER FOR 111 WK, Promoter: NONE USED): 1/52 (2%), 6/50 (12%), -500%, p=0.04
- tumour outcome (control, treated, inhibition, significance) (Carcinogen: 4-(METHYLNITROSAMINO)-1-(3-PYRIDYL)-1-BUTANONE, 64091-91-4, Dose [Inhibitor]: 0, 1 UMOL/G DIET FOR DURATION OF STUDY BEGINNING 1 WK PRIOR TO CARCINOGEN TREATMENT (STUDY DURATION: 112 WK), Route [Inhibitor]: ORAL, Species: RAT, Strain/Sex: F344/MALE, Target Tissue: Type of Lesion: PANCREAS: MALIGNANT TUMOR, Dose [Carcinogen]: 2 PPM IN DRINKING WATER FOR 111 WK, Promoter: NONE USED): 4/52 (8%), 1/50 (2%), 75%, not significant
- tumour outcome (control, treated, inhibition, significance) (Carcinogen: 4-(METHYLNITROSAMINO)-1-(3-PYRIDYL)-1-BUTANONE, 64091-91-4, Dose [Inhibitor]: 0, 5 UMOL IN 0.1 ML CORN OIL ONCE 2 HR PRIOR TO CARCINOGEN DOSE (STUDY DURATION: 16 WK), Route [Inhibitor]: GAVAGE, Species: MOUSE, Strain/Sex: STRAIN-A/FEMALE, Target Tissue: Type of Lesion: LUNG: ADENOMA, Dose [Carcinogen]: 10 UMOL IN 0.1 ML SALINE ONCE, Promoter: NONE USED): 100%, 25%, 75%, p<0.01
- tumour outcome (control, treated, inhibition, significance) (Carcinogen: 4-(METHYLNITROSAMINO)-1-(3-PYRIDYL)-1-BUTANONE, 64091-91-4, Dose [Inhibitor]: 0, 438 PPM IN DIET FOR 22 WK BEGINNING 1 WK PRIOR TO CARCINOGEN DOSE (STUDY DURATION: 98 WK), Route [Inhibitor]: ORAL, Species: RAT, Strain/Sex: F344/MALE, Target Tissue: Type of Lesion: NASAL CAVITY: TUMOR, Dose [Carcinogen]: 1.5 MG/KG BW 3/WK FOR 20 WK, Promoter: NONE USED): 28/36 (78%), 27/36 (75%), 4%, not significant
- tumour outcome (control, treated, inhibition, significance) (Carcinogen: 4-(METHYLNITROSAMINO)-1-(3-PYRIDYL)-1-BUTANONE, 64091-91-4, Dose [Inhibitor]: 0, 438 PPM IN DIET FOR 22 WK BEGINNING 1 WK PRIOR TO CARCINOGEN TREATMENT (STUDY DURATION: 98 WK), Route [Inhibitor]: ORAL, Species: RAT, Strain/Sex: F344/MALE, Target Tissue: Type of Lesion: LUNG: TUMOR, Dose [Carcinogen]: 1.5 MG/KG BW 3/WK FOR 20 WK, Promoter: NONE USED): 22/33 (67%), 7/36 (19%), 72%, p<0.01
- tumour outcome (control, treated, inhibition, significance) (Carcinogen: 4-(METHYLNITROSAMINO)-1-(3-PYRIDYL)-1-BUTANONE, 64091-91-4, Dose [Inhibitor]: 0, 876 PPM IN DIET FOR 22 WK BEGINNING 1 WK PRIOR TO CARCINOGEN TREATMENT (STUDY DURATION: 98 WK), Route [Inhibitor]: ORAL, Species: RAT, Strain/Sex: F344/MALE, Target Tissue: Type of Lesion: LUNG: TUMOR, Dose [Carcinogen]: 1.5 MG/KG BW 3/WK FOR 20 WK, Promoter: NONE USED): 22/33 (67%), 8/34 (24%), 64%, p<0.01
- tumour outcome (control, treated, inhibition, significance) (Carcinogen: 4-(METHYLNITROSAMINO)-1-(3-PYRIDYL)-1-BUTANONE, 64091-91-4, Dose [Inhibitor]: 0, 876 PPM IN DIET FOR 22 WK BEGINNING 1 WK PRIOR TO CARCINOGEN TREATMENT (STUDY DURATION: 98 WK), Route [Inhibitor]: ORAL, Species: RAT, Strain/Sex: F344/MALE, Target Tissue: Type of Lesion: NASAL CAVITY: TUMOR, Dose [Carcinogen]: 1.5 MG/KG BW 3/WK FOR 20 WK, Promoter: NONE USED): 28/36 (78%), 27/36 (75%), 4%, not significant
- tumour outcome (control, treated, inhibition, significance) (Carcinogen: 4-(METHYLNITROSAMINO-1-(3-PYRIDYL)-1-BUTANONE, 64091-91-4, Dose [Inhibitor]: O, 0.2 UMOL 1/D FOR 4 D ADMINISTERED PRIOR TO CARCINOGEN TREATMENT (STUDY DURATION: 116 D), Route [Inhibitor]: GAVAGE, Species: MOUSE, Strain/Sex: STRAIN A, Target Tissue: Type of Lesion: LUNG: ADENOMA, Dose [Carcinogen]: 10 UMOL ONCE 2 HR AFTER FINAL DOSE OF INHIBITOR, Promoter: NONE USED): 100%, 70%, 30%, p<0.05
- outcome (Carcinogen: BENZO[A]PYRENE, 50-32-8, Dose [Inhibitor]: 0, 5 UMOL IN ACETONE 4 HR PRIOR TO CARCINOGEN DOSE (STUDY DURATION: 20 WK), Route [Inhibitor]: DERMAL, Species: MOUSE, Strain/Sex: STRAIN-A/FEMALE, Target Tissue: Type of Lesion: SKIN: TUMOR, Dose [Carcinogen]: 0.1 UMOL IN ACETONE ONCE, Promoter: 12-O-TETRADECANOYLPHORBOL-13-ACETATE, 16561-29-8): 70%, 90%, 29%, not significant at 15 wk; 95%, 95%, 0%, not significant at 20 wk
- tumour outcome (control, treated, inhibition, significance) (Carcinogen: N-BUTYL-N(4-HYDROXYBUTYL)NITROSAMINE (3817-11-6), Dose [Inhibitor]: 0.5 UMOL/G IN DIET BEGINNING 1 WK BEFORE CARCINOGEN EXPOSURE (STUDY DURATION: 16 WK), Route [Inhibitor]: ORAL, Species: RAT, Strain/Sex: WISTAR/MALE, Target Tissue: Type of Lesion: URINARY BLADDER: PAPILLOMA, Dose [Carcinogen]: 0.025% IN DRINKING WATER FOR 15 WK, Promoter: NONE USED): 38/40 (95%), 24/30 (80%), 16%, not significant
- tumour outcome (control, treated, inhibition, significance) (Carcinogen: N-NITROSOMETHYLBENZYLAMINE [937-40-6], Dose [Inhibitor]: 0, 1 MMOL/KG DIET IMMEDIATELY POST LAST CARCINOGEN DOSE (STUDY DURATION: 25 WK), Route [Inhibitor]: ORAL, Species: RAT, Strain/Sex: F344/MALE, Target Tissue: Type of Lesion: ESOPHAGUS: TUMOR, Dose [Carcinogen]: 0.5 MG/KG BW IN 20% DMSO 3 TIMES/WK FOR 5 WK (STUDY DURATION: 25 WK), Promoter: NONE): 100%, 100%, 0%, not significant
- tumour outcome (control, treated, inhibition, significance) (Carcinogen: N-NITROSOMETHYLBENZYLAMINE [937-40-6], Dose [Inhibitor]: 0, 2.5 MMOL/KG DIET IMMEDIATELY POST LAST CARCINOGEN DOSE (STUDY DURATION: 25 WK), Route [Inhibitor]: ORAL, Species: RAT, Strain/Sex: F344/MALE, Target Tissue: Type of Lesion: ESOPHAGUS: TUMOR, Dose [Carcinogen]: 0.5 MG/KG BW IN 20% DMSO 3 TIMES/WK FOR 5 WK (STUDY DURATION: 25 WK), Promoter: NONE): 100%, 100%, 0%, not significant
